Where two headings read alike, the source gives them in different places.
Assay: Ocular tissue and plasma pharmacokinetics, 15 mg/kg oral, New Zealand White rabbits (Example 3/5)
Assay type: in vivo
[1] = Choroid-RPE, NZW rabbit, 15 mg/kg single dose, Day 1
[2] = NZW rabbit, 15 mg/kg single oral dose, Day 1, 0 h, 15 mg/kg
[3] = NZW rabbit, 15 mg/kg single oral dose, Day 1, 6 h, 15 mg/kg
[4] = NZW rabbit, 15 mg/kg single oral dose, Day 1, 24 h
[5] = NZW rabbit, 15 mg/kg single oral dose, Day 1, 24 h, 15 mg/kg
[6] = NZW rabbit, 15 mg/kg single oral dose, Day 1, 96 h
[7] = NZW rabbit, 15 mg/kg single oral dose, Day 1, 96 h, 15 mg/kg
[8] = NZW rabbit, 15 mg/kg single oral dose, Day 1, 168 h
[9] = NZW rabbit, 15 mg/kg single oral dose, Day 1, 168 h, 15 mg/kg
[10] = NZW rabbit, 15 mg/kg single oral dose, Day 1, 240 h, 15 mg/kg
[11] = NZW rabbits, Day 1, 15 mg/kg single dose, 0 hr
[12] = NZW rabbits, Day 1, 15 mg/kg single dose, 168 hr
[13] = NZW rabbits, Day 1, 15 mg/kg single dose, 240 hr
[14] = New Zealand White, po, Iris-Ciliary Body, NZW rabbit, 15 mg/kg single dose, Day 1
[15] = New Zealand White, po, Vitreous Humor, NZW rabbit, 15 mg/kg single dose, Day 1
[16] = plasma, NZW rabbit, 15 mg/kg single dose, Day 1
[17] = retina, NZW rabbit, 15 mg/kg single dose, Day 1

## CC(=O)c1nn(CC(=O)N2C[C@H](F)C[C@H]2C(=O)Nc2cccc(Br)n2)c2ccc(-c3cnc(C)nc3)cc12 [Compound 1, (2S,4R)-1-(2-(3-Acetyl-5-(2-methylpyrimidin-5-yl)-1H-indazol-1-yl)acetyl)-N-(6-bromopyridin-2-yl)-4-fluoropyrrolidine-2-carboxamide]
[1]
  MRTlast: 5.87 h
  Tlast: 24 h
Iris-Ciliary Body, NZW rabbit, 15 mg/kg single dose, Day 1
  Tlast: 1 h
NZW rabbit, 15 mg/kg single oral dose, Day 1, 0 h
  Mean Vitreous Humor concentration: BLQ^a
[2]
  Mean Choroid-RPE concentration: BLQ^a and BLQ
  Mean Iris-Ciliary Body concentration: BLQ^a and BLQ
  Mean plasma concentration: BLQ^a and BLQ
  Mean retina concentration: BLQ^a and BLQ
NZW rabbit, 15 mg/kg single oral dose, Day 1, 6 h
  Mean Aqueous Humor concentration: BLQ^a
[3]
  Mean Iris-Ciliary Body concentration: BLQ^a and BLQ
  Mean retina concentration: 26 ng/g
[4]
  Mean Aqueous Humor concentration: BLQ^a
  Mean Vitreous Humor concentration: BLQ^a
[5]
  Mean Iris-Ciliary Body concentration: BLQ^a and BLQ
  Mean retina concentration: BLQ^a and BLQ
[6]
  Mean Aqueous Humor concentration: BLQ^a
  Mean Vitreous Humor concentration: BLQ^a
[7]
  Mean Choroid-RPE concentration: BLQ^a and BLQ
  Mean Iris-Ciliary Body concentration: BLQ^a and BLQ
  Mean plasma concentration: BLQ^a and BLQ
  Mean retina concentration: BLQ^a and BLQ
[8]
  Mean Aqueous Humor concentration: BLQ^a
  Mean Vitreous Humor concentration: BLQ^a
[9]
  Mean Choroid-RPE concentration: BLQ^a and BLQ
  Mean Iris-Ciliary Body concentration: BLQ^a and BLQ
  Mean retina concentration: BLQ^a and BLQ
NZW rabbit, 15 mg/kg single oral dose, Day 1, 240 h
  Mean Aqueous Humor concentration: BLQ^a
[10]
  Mean Choroid-RPE concentration: BLQ^a and BLQ
  Mean Iris-Ciliary Body concentration: BLQ^a and BLQ
  Mean plasma concentration: BLQ^a and BLQ
  Mean retina concentration: BLQ^a and BLQ
[11]
  Mean Choroid-RPE concentration: BLQ
  Mean retina concentration: BLQ
NZW rabbits, Day 1, 15 mg/kg single dose, 24 hr
  Mean retina concentration: BLQ
NZW rabbits, Day 1, 15 mg/kg single dose, 96 hr
  Mean Choroid-RPE concentration: BLQ
[12]
  Mean Choroid-RPE concentration: BLQ
  Mean retina concentration: BLQ
[13]
  Mean Choroid-RPE concentration: BLQ
  Mean retina concentration: BLQ
New Zealand White, aqueous humor, NZW rabbit, 15 mg/kg single oral dose, Day 1, 1 h, read-out: Mean Aqueous Humor concentration
  concentration at 1 h: 4 ng/mL
New Zealand White, choroid-RPE, NZW rabbit, 15 mg/kg single oral dose, Day 1, 1 h, read-out: Mean Choroid-RPE concentration
  concentration at 1 h: 172 ng/g
New Zealand White, choroid-RPE, NZW rabbit, 15 mg/kg single oral dose, Day 1, 6 h, read-out: Mean Choroid-RPE concentration
  concentration at 6 h: 31.5 ng/g
New Zealand White, choroid-RPE, NZW rabbit, 15 mg/kg single oral dose, Day 1, 24 h, read-out: Mean Choroid-RPE concentration
  concentration at 24 h: 15.1 ng/g
New Zealand White, plasma, NZW rabbit, 15 mg/kg single oral dose, Day 1, 1 h, read-out: Mean plasma concentration
  concentration at 1 h: 310 ng/mL
New Zealand White, plasma, NZW rabbit, 15 mg/kg single oral dose, Day 1, 6 h, read-out: Mean plasma concentration
  concentration at 6 h: 35.1 ng/mL
New Zealand White, plasma, NZW rabbit, 15 mg/kg single oral dose, Day 1, 24 h, read-out: Mean plasma concentration
  concentration at 24 h: 11.1 ng/mL
[14]
  Cmax: 117 ng/g
  MRT last: 1 h
[15]
  AUC(0-t): 30.3 ng·h/mL
  Cmax: 7.61 ng/mL
New Zealand White, po, plasma, NZW rabbit, 15 mg/kg single dose, Day 1
  Cmax: 310 ng/mL
New Zealand White, rabbit, choroid-RPE, oral, NZW rabbits, Day 1, 15 mg/kg single dose, 1 hr, read-out: Mean Choroid-RPE Concentration
  concentration at 1 h: 172 ng/g
New Zealand White, rabbit, choroid-RPE, oral, NZW rabbits, Day 1, 15 mg/kg single dose, 6 hr, read-out: Mean Choroid-RPE Concentration
  concentration at 6 h: 31.5 ng/g
New Zealand White, rabbit, choroid-RPE, oral, NZW rabbits, Day 1, 15 mg/kg single dose, 24 hr, read-out: Mean Choroid-RPE Concentration
  concentration at 24 h: 15.1 ng/g
New Zealand White, rabbit, retina, oral, NZW rabbits, Day 1, 15 mg/kg single dose, 1 hr, read-out: Mean Retina Concentration
  concentration at 1 h: 200 ng/g
New Zealand White, rabbit, retina, oral, NZW rabbits, Day 1, 15 mg/kg single dose, 6 hr, read-out: Mean Retina Concentration
  concentration at 6 h: 26 ng/g
New Zealand White, retina, NZW rabbit, 15 mg/kg single oral dose, Day 1, 1 h, read-out: Mean retina concentration
  concentration at 1 h: 200 ng/g
New Zealand White, retina, NZW rabbit, 15 mg/kg single oral dose, Day 1, 6 h, read-out: Mean retina concentration
  concentration at 6 h: 26 ng/g
New Zealand White, vitreous humor, NZW rabbit, 15 mg/kg single oral dose, Day 1, 1 h, read-out: Mean Vitreous Humor concentration
  concentration at 1 h: 7.61 ng/mL
New Zealand White, vitreous humor, NZW rabbit, 15 mg/kg single oral dose, Day 1, 6 h, read-out: Mean Vitreous Humor concentration
  concentration at 6 h: 3 ng/mL
[16]
  MRTlast: 4.01 h
  Tlast: 24 h
[17]
  MRTlast: 1.49 h
  Tlast: 6 h
